Experiment: Toxicology in rats, oral, histopathology
Type: in vivo
Settings: rat, in vivo, po
Text: After 32 days, the rats were sacrificed and their organs were examined under a microscope.

O.O.O.O.[Na+].[O-]B1OO1 [sodium perborate tetrahydrate]
LIVER Within normal limits, % (1 mg/kg): 100% | LIVER Within normal limits, No Exam (1 mg/kg): 10/10 | LUNG Lymphocytic infiltration, % (1 mg/kg): 0% | LUNG Lymphocytic infiltration, No Exam (1 mg/kg): 0/10 | LUNG Notable or abnormal, % (1 mg/kg): 0% | LUNG Notable or abnormal, No Exam (1 mg/kg): 0/10 | LUNG Pulmonary edema, % (1 mg/kg): 0% | LUNG Pulmonary edema, No Exam (1 mg/kg): 0/10 | LUNG Within normal limits, % (1 mg/kg): 100% | LUNG Within normal limits, No Exam (1 mg/kg): 10/10 | PANCREAS Notable or abnormal, % (1 mg/kg): 0% | PANCREAS Notable or abnormal, No Exam (1 mg/kg): 0/10 | PANCREAS Within normal limits, % (1 mg/kg): 100% | PANCREAS Within normal limits, No Exam (1 mg/kg): 10/10 | SPLEEN Notable or abnormal, % (1 mg/kg): 0% | SPLEEN Notable or abnormal, No Exam (1 mg/kg): 0/10 | SPLEEN Within normal limits, % (1 mg/kg): 100% | SPLEEN Within normal limits, No Exam (1 mg/kg): 10/10 | STOMACH Notable or abnormal, % (1 mg/kg): 0% | STOMACH Notable or abnormal, No Exam (1 mg/kg): 0/10 | STOMACH Within normal limits, % (1 mg/kg): 100% | STOMACH Within normal limits, No Exam (1 mg/kg): 10/10 | HEART Notable or abnormal, % (2 mg/kg): 0% | HEART Notable or abnormal, No Exam (2 mg/kg): 0/10 | HEART Within normal limits, % (2 mg/kg): 100% | HEART Within normal limits, No Exam (2 mg/kg): 10/10 | INTESTINE, Large Notable or abnormal, % (2 mg/kg): 0% | INTESTINE, Large Notable or abnormal, No Exam (2 mg/kg): 0/10 | INTESTINE, Large Within normal limits, % (2 mg/kg): 100% | INTESTINE, Large Within normal limits, No Exam (2 mg/kg): 10/10 | INTESTINE, Small Notable or abnormal, % (2 mg/kg): 0% | INTESTINE, Small Notable or abnormal, No Exam (2 mg/kg): 0/10 | INTESTINE, Small Within normal limits, % (2 mg/kg): 100% | INTESTINE, Small Within normal limits, No Exam (2 mg/kg): 10/10 | KIDNEY Edema, % (2 mg/kg): 0% | KIDNEY Edema, No Exam (2 mg/kg): 0/10 | KIDNEY Notable or abnormal, % (2 mg/kg): 0% | KIDNEY Notable or abnormal, No Exam (2 mg/kg): 0/10 | KIDNEY Within normal limits, % (2 mg/kg): 100% | KIDNEY Within normal limits, No Exam (2 mg/kg): 10/10 | LIVER Fattening, % (2 mg/kg): 0% | LIVER Fattening, No Exam (2 mg/kg): 0/10 | LIVER Infiltration, % (2 mg/kg): 0% | LIVER Infiltration, No Exam (2 mg/kg): 0/10 | LIVER Notable or abnormal, % (2 mg/kg): 0% | LIVER Notable or abnormal, No Exam (2 mg/kg): 0/10 | LIVER Within normal limits, % (2 mg/kg): 100% | LIVER Within normal limits, No Exam (2 mg/kg): 10/10 | LUNG Lymphocytic infiltration, % (2 mg/kg): 0% | LUNG Lymphocytic infiltration, No Exam (2 mg/kg): 0/10 | LUNG Notable or abnormal, % (2 mg/kg): 0% | LUNG Notable or abnormal, No Exam (2 mg/kg): 0/10 | LUNG Pulmonary edema, % (2 mg/kg): 0% | LUNG Pulmonary edema, No Exam (2 mg/kg): 0/10 | LUNG Within normal limits, % (2 mg/kg): 100% | LUNG Within normal limits, No Exam (2 mg/kg): 10/10 | PANCREAS Notable or abnormal, % (2 mg/kg): 0% | PANCREAS Notable or abnormal, No Exam (2 mg/kg): 0/10 | PANCREAS Within normal limits, % (2 mg/kg): 100% | PANCREAS Within normal limits, No Exam (2 mg/kg): 10/10 | SPLEEN Notable or abnormal, % (2 mg/kg): 0% | SPLEEN Notable or abnormal, No Exam (2 mg/kg): 0/10 | SPLEEN Within normal limits, % (2 mg/kg): 100% | SPLEEN Within normal limits, No Exam (2 mg/kg): 10/10 | STOMACH Notable or abnormal, % (2 mg/kg): 0% | STOMACH Notable or abnormal, No Exam (2 mg/kg): 0/10 | STOMACH Within normal limits, % (2 mg/kg): 100% | STOMACH Within normal limits, No Exam (2 mg/kg): 10/10 | HEART Notable or abnormal, % (4 mg/kg): 0% | HEART Notable or abnormal, No Exam (4 mg/kg): 0/10 | HEART Within normal limits, % (4 mg/kg): 100% | HEART Within normal limits, No Exam (4 mg/kg): 10/10 | INTESTINE, Large Notable or abnormal, % (4 mg/kg): 0% | INTESTINE, Large Notable or abnormal, No Exam (4 mg/kg): 0/10 | INTESTINE, Large Within normal limits, % (4 mg/kg): 100% | INTESTINE, Large Within normal limits, No Exam (4 mg/kg): 10/10 | INTESTINE, Small Notable or abnormal, % (4 mg/kg): 0% | INTESTINE, Small Notable or abnormal, No Exam (4 mg/kg): 0/10 | INTESTINE, Small Within normal limits, % (4 mg/kg): 100% | INTESTINE, Small Within normal limits, No Exam (4 mg/kg): 10/10 | KIDNEY Edema, % (4 mg/kg): 0%
